# Target: T1, glucosylceramide synthase (Homo sapiens, UniProt Q16739)
# T1 construct: made in house; host or cells: Expi293F cells (transient expression, pcDNA3.3-TOPO vector); microsome fraction used as enzyme source
# T1 sequence (Q16739 1-394): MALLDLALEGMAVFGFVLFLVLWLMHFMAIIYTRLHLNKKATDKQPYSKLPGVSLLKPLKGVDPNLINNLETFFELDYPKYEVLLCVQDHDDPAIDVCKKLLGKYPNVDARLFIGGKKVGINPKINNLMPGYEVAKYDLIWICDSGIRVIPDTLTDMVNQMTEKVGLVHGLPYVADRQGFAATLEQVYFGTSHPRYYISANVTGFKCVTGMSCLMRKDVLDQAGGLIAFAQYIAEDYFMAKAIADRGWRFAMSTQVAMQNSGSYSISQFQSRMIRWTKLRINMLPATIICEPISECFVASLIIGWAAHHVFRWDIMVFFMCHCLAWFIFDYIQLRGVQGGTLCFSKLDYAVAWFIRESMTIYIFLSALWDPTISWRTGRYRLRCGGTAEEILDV
# Assay: Glucosylceramide synthase (GCS) enzyme assay, microsome fraction, C8 glucosylceramide quantified by Rapidfire MS/MS
# Type: biochemical
# Conditions: test compound 10 μM; 1.7 μM UDP-glucose, 3 μM C8 ceramide; room temperature 60 min; read-out: GCS enzyme inhibitory rate at 10 μM (%) (% of control)
# How it was run: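 Test compound, 10 μM final, was run against human GCS from transfected Expi293F microsome fractions, using substrate solution of 6 μM C8 ceramide (in DOPC liposomes) plus 3.4 μM UDP-glucose, pH 7.5 Tris buffer, 60 min, room temperature. Product C8 glucosylceramide measured by Rapidfire MS/MS against an internal standard, % inhibition referenced to no-enzyme and DMSO wells.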
row,Compound,inhibition at 10 µM
1,"CS(=O)(=O)c1ccc(N2Cc3c(ccnc3-c3ccc(F)cc3OCC(F)(F)F)C2=O)nc1 [Example 108, 4-[4-fluoro-2-(2,2,2-trifluoroethoxy)phenyl]-2-[5-(methanesulfonyl)pyridin-2-yl]-2,3-dihydro-1H-pyrrolo[3,4-c]pyridin-1-one]",64%
2,"CCS(=O)(=O)c1ccc(N2Cc3c(ccnc3-c3ccc(F)cc3OCC(F)(F)F)C2=O)cc1 [Example 110, 2-[4-(ethanesulfonyl)phenyl]-4-[4-fluoro-2-(2,2,2-trifluoroethoxy)phenyl]-2,3-dihydro-1H-pyrrolo[3,4-c]pyridin-1-one]",97%
3,"Fc1ccc(N2Cc3ccnc(-c4ccc(F)cc4OCC(F)(F)F)c3C2)cc1 [Example 111, 2-(4-fluorophenyl)-4-[4-fluoro-2-(2,2,2-trifluoroethoxy)phenyl]-2,3-dihydro-1H-pyrrolo[3,4-c]pyridine]",92%
4,"N#CCOc1cc(F)ccc1-c1nccc2c1CN(c1ccc(OC(F)F)nc1)C2=O [Example 112, (2-{2-[6-(difluoromethoxy)pyridin-3-yl]-1-oxo-2,3-dihydro-1H-pyrrolo[3,4-c]pyridin-4-yl}-5-fluorophenoxy)acetonitrile]",98%
5,"COCCOc1cc(F)ccc1-c1nccc2c1CN(c1ccc(OC(F)F)nc1)C2=O [Example 113, 2-[6-(difluoromethoxy)pyridin-3-yl]-4-[4-fluoro-2-(2-methoxyethoxy)phenyl]-2,3-dihydro-1H-pyrrolo[3,4-c]pyridin-1-one]",66%
6,"O=C1c2ccnc(-c3ccc(F)cc3OCc3ccccc3)c2CN1c1ccc(OC(F)F)cc1 [Example 114, 4-[2-(benzyloxy)-4-fluorophenyl]-2-[4-(difluoromethoxy)phenyl]-2,3-dihydro-1H-pyrrolo[3,4-c]pyridin-1-one]",99%
7,"O=C1CC2=C(CN(c3ccc(F)cc3)C2=O)N(c2ccc(F)cc2OCC(F)(F)F)N1 [Example 115, 6-(4-fluorophenyl)-1-[4-fluoro-2-(2,2,2-trifluoroethoxy)phenyl]-6,7-dihydro-1H-pyrrolo[3,4-c]pyridazine-3,5(2H,4H)-dione]",65%
8,"O=C(c1ccc(-c2nccc3c2CN(c2ccc(OC(F)F)nc2)C3=O)c(OCC(F)(F)F)c1)N1CCC1 [Example 118, 4-[4-(azetidine-1-carbonyl)-2-(2,2,2-trifluoroethoxy)phenyl]-2-[6-(difluoromethoxy)pyridin-3-yl]-2,3-dihydro-1H-pyrrolo[3,4-c]pyridin-1-one]",96%
9,"COc1cc(C(=O)N2CCC2)ccc1-c1nccc2c1CN(c1ccc(F)cc1)C2=O [Example 120, 4-[4-(azetidine-1-carbonyl)-2-methoxyphenyl]-2-(4-fluorophenyl)-2,3-dihydro-1H-pyrrolo[3,4-c]pyridin-1-one]",61%
10,"COc1cc(C(=O)N2CCC2)ccc1-c1nccc2c1CN(c1ccc(OC(F)F)cc1)C2=O [Example 122, 4-[4-(azetidine-1-carbonyl)-2-methoxyphenyl]-2-[4-(difluoromethoxy)phenyl]-2,3-dihydro-1H-pyrrolo[3,4-c]pyridin-1-one]",95%
11,"COc1cc(C(=O)N2CCC2)ccc1-c1nccc2c1CN(c1ccc(OC(F)F)nc1)C2=O [Example 123, 4-[4-(azetidine-1-carbonyl)-2-methoxyphenyl]-2-[6-(difluoromethoxy)pyridin-3-yl]-2,3-dihydro-1H-pyrrolo[3,4-c]pyridin-1-one]",85%
12,"O=C(c1ccc(-c2nccc3c2CN(c2ccc(OC(F)F)cc2)C3=O)c(OC(F)F)c1)N1CCC1 [Example 124, 4-[4-(azetidine-1-carbonyl)-2-(difluoromethoxy)phenyl]-2-[4-(difluoromethoxy)phenyl]-2,3-dihydro-1H-pyrrolo[3,4-c]pyridin-1-one]",98%
13,"O=C(c1ccc(-c2nccc3c2CN(c2ccc(OC(F)F)nc2)C3=O)c(OC(F)F)c1)N1CCC1 [Example 125, 4-[4-(azetidine-1-carbonyl)-2-(difluoromethoxy)phenyl]-2-[6-(difluoromethoxy)pyridin-3-yl]-2,3-dihydro-1H-pyrrolo[3,4-c]pyridin-1-one]",94%
14,"O=C1c2ccnc(-c3ccc(F)cc3OCC3COC3)c2CN1c1ccc(OC(F)F)cc1 [Example 126, 2-[4-(difluoromethoxy)phenyl]-4-{4-fluoro-2-[(oxetan-3-yl)methoxy]phenyl}-2,3-dihydro-1H-pyrrolo[3,4-c]pyridin-1-one]",97%
15,"O=C1c2ccnc(-c3ccc(F)cc3OCC3(F)COC3)c2CN1c1ccc(OC(F)F)cc1 [Example 127, 2-[4-(difluoromethoxy)phenyl]-4-{4-fluoro-2-[(3-fluorooxetan-3-yl)methoxy]phenyl}-2,3-dihydro-1H-pyrrolo[3,4-c]pyridin-1-one]",100%
16,"O=C1c2ccnc(-c3ccc(F)cc3OCC3(F)CC3)c2CN1c1ccc(OC(F)F)cc1 [Example 128, 2-[4-(difluoromethoxy)phenyl]-4-{4-fluoro-2-[(1-fluorocyclopropyl)methoxy]phenyl}-2,3-dihydro-1H-pyrrolo[3,4-c]pyridin-1-one]",99%
17,"O=C1c2ccnc(-c3ccc(F)cc3OCC3CC3)c2CN1c1ccc(OC(F)F)cc1 [Example 129, 4-[2-(cyclopropylmethoxy)-4-fluorophenyl]-2-[4-(difluoromethoxy)phenyl]-2,3-dihydro-1H-pyrrolo[3,4-c]pyridin-1-one]",99%
18,"O=C1c2ccnc(-c3ccc(F)cc3OCC(F)(F)F)c2CN1c1ccc(OCC(F)F)nc1 [Example 131, 2-[6-(2,2-difluoroethoxy)pyridin-3-yl]-4-[4-fluoro-2-(2,2,2-trifiuoroethoxy)phenyl]-2,3-dihydro-1H-pyrrolo[3,4-c]pyridin-1-one]",87%
19,"O=C1c2ccnc(-c3ccc(F)cc3OCC(F)(F)F)c2CN1c1ccc(S(=O)(=O)C(F)F)cc1 [Example 139, 2-[4-(difluoromethanesulfonyl)phenyl]-4-[4-fluoro-2-(2,2,2-trifluoroethoxy)phenyl]-2,3-dihydro-1H-pyrrolo[3,4-c]pyridin-1-one]",96%
20,"CS(=O)(=O)c1ccc(N2Cc3ccnc(-c4ccc(F)cc4OCC(F)(F)F)c3C2)cc1 [Example 140, 4-[4-fluoro-2-(2,2,2-trifluoroethoxy)phenyl]-2-[4-(methanesulfonyl)phenyl]-2,3-dihydro-1H-pyrrolo[3,4-c]pyridine]",86%
21,"CN(C)C(=O)c1ccc(N2Cc3ccnc(-c4ccc(F)cc4OCC(F)(F)F)c3C2)cc1 [Example 141, 4-{4-[4-fluoro-2-(2,2,2-trifluoroethoxy)phenyl]-1,3-dihydro-2H-pyrrolo[3,4-c]pyridin-2-yl}-N,N-dimethylbenzamide]",90%
22,"COc1cccc(F)c1-c1nccc2c1CN(c1ccc(F)cc1)C2=O [Example 142, 4-(2-fluoro-6-methoxyphenyl)-2-(4-fluorophenyl)-2,3-dihydro-1H-pyrrolo[3,4-c]pyridin-1-one]",77%
23,"O=C1C2=C(CN1c1ccc(F)cc1)C(c1ccc(F)cc1OCC(F)(F)F)=NCCN2 [Example 145, 7-(4-fluorophenyl)-5-[4-fluoro-2-(2,2,2-trifluoroethoxy)phenyl]-2,3,6,7-tetrahydropyrrolo[3,4-e][1,4]diazepin-8(1H)-one]",63%
24,"O=C1c2[nH]nc(-c3ccc(F)cc3OCC(F)(F)F)c2CN1c1ccc(F)cc1 [Example 146, 5-(4-fluorophenyl)-3-[4-fluoro-2-(2,2,2-trifluoroethoxy)phenyl]-4,5-dihydropyrrolo[3,4-c]pyrazol-6(1H)-one]",55%
25,"COCc1ccc(N2Cc3c(ccnc3-c3ccc(F)cc3OCC(F)(F)F)C2=O)cc1 [Example 147, 4-[4-fluoro-2-(2,2,2-trifluoroethoxy)phenyl]-2-[4-(methoxymethyl)phenyl]-2,3-dihydro-1H-pyrrolo[3,4-c]pyridin-1-one]",94%
26,"O=C1c2ccc(=O)n(-c3ccccc3OCC(F)(F)F)c2CN1c1ccc(OC(F)(F)F)cc1 [Example 149, 1-[2-(2,2,2-trifluoroethoxy)phenyl]-6-[4-(trifluoromethoxy)phenyl]-6,7-dihydro-1H-pyrrolo[3,4-b]pyridine-2,5-dione]",99%
27,"O=C1c2ccnc(-c3ccc(F)cc3OCC(F)(F)F)c2CN1c1cnc(OC(F)F)nc1 [Example 151, 2-[2-(difluoromethoxy)pyrimidin-5-yl]-4-[4-fluoro-2-(2,2,2-trifluoroethoxy)phenyl]-2,3-dihydro-1H-pyrrolo[3,4-c]pyridin-1-one]",94%
28,"O=C(c1ccc(N2Cc3c(ccnc3-c3ccc(F)cc3OCC(F)(F)F)C2=O)cc1)N1CCOCC1 [Example 152, 4-[4-fluoro-2-(2,2,2-trifluoroethoxy)phenyl]-2-[4-(morpholine-4-carbonyl)phenyl]-2,3-dihydro-1H-pyrrolo[3,4-c]pyridin-1-one]",90%
29,"O=C1c2ccnc(-c3ccc(F)cc3OCC(F)(F)F)c2CN1c1cnn(CC2CC2)c1 [Example 153, 2-[1-(cyclopropylmethyl)-1H-pyrazol-4-yl]-4-[4-fluoro-2-(2,2,2-trifluoroethoxy)phenyl]-2,3-dihydro-1H-pyrrolo[3,4-c]pyridin-1-one]",98%

# Source: patent publication US12528802B2, “Heterocyclic compound” (Takeda Pharmaceutical Company Limited, priority 2019, dated 2026)
